Consider 26 molecules from patent publication US11453690B2, “Receptor inhibitor, pharmaceutical composition comprising same, and use thereof” (BEIJING TIDE PHARMACEUTICAL CO., LTD., priority 2018, dated 2022).

The target in the experiment is AT2 Receptor (AT2R) (Homo sapiens (Human), UniProt P50052). Put plainly: Measurement of inhibitory activity on AT2 receptor (Tag-lite HTRF, Tb-labeled AT2R cells, angiotensin receptor red agonist). The format is binding. The note with it: 1 h room temperature. On the procedure: Measurement of Inhibitory Activity on AT1 Receptor ([…])/AT2 Receptor (AT2R)
Sequence of AT2 Receptor (AT2R) (P50052 whole entry): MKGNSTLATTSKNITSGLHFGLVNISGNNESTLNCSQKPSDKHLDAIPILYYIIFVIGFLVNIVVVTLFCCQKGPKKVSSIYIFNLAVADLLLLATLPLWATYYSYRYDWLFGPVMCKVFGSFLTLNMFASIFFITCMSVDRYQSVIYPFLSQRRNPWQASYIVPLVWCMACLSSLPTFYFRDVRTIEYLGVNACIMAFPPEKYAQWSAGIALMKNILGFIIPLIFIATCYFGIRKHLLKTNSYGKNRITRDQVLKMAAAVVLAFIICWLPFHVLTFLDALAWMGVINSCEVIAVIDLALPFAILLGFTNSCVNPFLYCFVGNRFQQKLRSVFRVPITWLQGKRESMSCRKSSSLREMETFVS
Through the following steps, the inhibitory activity of the compound on AT1R/AT2R (IC50 value) was determined:
1) An appropriate amount of 1×TLB (Tag-lite Buffer) was prepared and well mixed for use.
2) The compound was diluted by 10 times with ddH2O or DMSO. The compound was then dilute to 4 times of the working concentration with 1×TLB and mixed well for use.
3) 8600 nM Tag-lite angiotensin receptor red agonist was diluted to 12 nM (4×Kd) with 1×TLB.
4) 5 ml 1×TLB was taken into a 15 ml centrifuge tube.
5) After thawing 1 tube of Tb-labeled AT1R/AT2R cells in a 37° C. water bath, the cells were quickly transferred to the 1×TLB in step 4), mixed gently, and centrifuged at 1200 g for 5 minutes at room temperature.
6) The supernatant was aspirated gently, and the cells were resuspended and mixed in 2.7 ml 1×TLB, and then placed at room temperature until use.
7) 10 μl cells were added to all test wells, and 5 μl 4× working solution of the compound from step 2) was added to the corresponding test wells. 5 μl 4× Tag-lite angiotensin receptor red agonist well diluted in step 3) was added to all test wells.
8) After leaving the reaction plate at room temperature for 1 h, data were measured and analyzed using Envision HTRF Reader, and the half inhibitory concentration (IC50) of the compound on AT1R/AT2R was calculated with the GraphPad Prism four-parameter equation.
(In general: Time-resolved FRET reads energy transfer from a long-lived donor to a nearby acceptor.)

The term IC50 denotes the concentration that gives 50% inhibition. Low readings indicate greater potency, high ones weaker potency. Regarding `O=C(O)[C@@H]1[C@H]2CC[C@@H](CN1C(=O)N(c1ccccc1)c1ccccc1)N2C(=O)N(Cc1ccccc1)Cc1ccccc1` [Compound C133, (1R,2S,5S)-8-(dibenzylcarbamoyl)-3-(diphenylcarbamoyl)-3,8-diazabicyclo[3.2.1] octane-2-carboxylic acid], the 50% inhibitory concentration (IC50) was 0.243 µM. To `CCN(Cc1csc2ccccc12)C(=O)N1[C@H]2CC[C@@H]1[C@@H](C(=O)O)N(C(=O)N(c1ccccc1)c1ccccc1)C2` [Compound C245, (1R,2S,5S)-8-((benzo[b]thiophene-3-ylmethyl) (ethyl)carbamoyl)-3-(diphenylcarbamoyl)-3,8-diazabicyclo [3.2.1]octane-2-carboxylic acid] belongs 0.0105 µM; to `CCN(Cc1ccsc1)C(=O)N1[C@H]2CC[C@@H]1[C@@H](C(=O)O)N(C(=O)C(c1ccccc1)c1ccccc1)C2` [Compound C188, (1R,2S,5S)-3-(2,2-diphenylacetyl)-8-(ethyl(thiophene-3-ylmethyl)carbamoyl)-3,8-diazabicyclo [3.2.1]octane-2-carboxylic acid], 0.00711 µM.

The molecule `O=C(O)[C@H]1[C@@H]2CC[C@H](CN1C(=O)C(c1ccccc1)c1ccccc1)N2C(=O)OCc1ccccc1` [Compound C76, (1S,2R,5R)-8-((benzyloxy)carbonyl)-3-(2,2-diphenylacetyl)-3,8-diazabicyclo [3.2.1]octane-2-carboxylic acid] yielded a 50% inhibitory concentration (IC50) of 0.0697 µM. This IC50 lies about 9.8-fold higher than the previous one. Under `O=C(O)[C@H]1[C@@H]2CC[C@H](CN1C(=O)C(c1ccccc1)c1ccccc1)N2C(=O)C(c1ccccc1)c1ccccc1` [Compound C2, (1S,2R,5R)-3,8-bis (2,2-diphenylacetyl)-3,8-diazabicyclo [3.2.1]octane-2-carboxylic acid] stands 0.00911 µM. Under “(1R,2S,5S)-3- (2,2-diphenylacetyl)- 8-(((2-fluorobenzyl) oxy)carbonyl)- 3,8-diazabicyclo [3.2.1]octane-2- carboxylic acid [Compound C35]” stands 0.0366 µM. Under `CN(Cc1ccc2ncccc2c1)C(=O)N1[C@H]2CC[C@@H]1[C@@H](C(=O)O)N(C(=O)N(c1ccccc1)c1ccccc1)C2` [Compound C266, (1R,2S,5S)-3-(diphenylcarbamoyl)-8-(methyl (quinoline-6-ylmethyl)carbamoyl)-3,8-diazabicyclo [3.2.1]octane-2-carboxylic acid] stands 0.00163 µM. For `CCc1ccc(CN(C)C(=O)N2[C@H]3CC[C@@H]2[C@@H](C(=O)O)N(C(=O)N(c2ccccc2)c2ccccc2)C3)cc1` [Compound C164, (1R,2S,5S)-3-(diphenylcarbamoyl)-8-((4-ethylbenzyl) (methyl)carbamoyl)-3,8-diazabicyclo[3.2.1] octane-2-carboxylic acid], the IC50 stood at 0.00435 µM. Under `CCN(Cc1ccc(Cl)cc1)C(=O)N1[C@H]2CC[C@@H]1[C@@H](C(=O)O)N(C(=O)N(c1ccccc1)c1ccccc1)C2` [Compound C217, (1R,2S,5S)-8-((4-chlorobenzyl) (ethyl)carbamoyl)-3-(diphenylcarbamoyl)-3,8-diazabicyclo [3.2.1]octane-2-carboxylic acid] stands 0.00913 µM; under `CN(C)[C@@H](Cc1ccccc1)C(=O)N1[C@H]2CC[C@@H]1[C@@H](C(=O)O)N(C(=O)N(c1ccccc1)c1ccccc1)C2` [Compound C269, (1R,2S,5S)-8-((S)-2-(dimethylamino)-3-phenylpropionyl)-3-(diphenylcarbamoyl)-3,8-diazabicyclo [3.2.1]octane-2-carboxylic acid], 0.0682 µM; under `O=C(O)[C@H]1[C@@H]2CC[C@H](CN1C(=O)C(c1ccccc1)c1ccccc1)N2C(=O)C(c1ccccc1)c1ccccc1` [Compound C4, (1S,2R,5R)-3,8-bis (2,2-diphenylacetyl)-3,8-diazabicyclo [3.2.1]octane-2-carboxylic acid], 0.00982 µM. To `C=CCc1ccc(CN(C)C(=O)N2[C@H]3CC[C@@H]2[C@@H](C(=O)O)N(C(=O)N(c2ccccc2)c2ccccc2)C3)cc1` [Compound C235, (1R,2S,5S)-8-((4-allylbenzyl)(methyl)carbamoyl)-3-(diphenylcarbamoyl)-3,8-diazabicyclo[3.2.1]octane-2-carboxylic acid] belongs 0.00678 µM; to `Cc1ccccc1CN(C)C(=O)N1[C@H]2CC[C@@H]1[C@@H](C(=O)O)N(C(=O)N(c1ccccc1)c1ccccc1)C2` [Compound C163, (1R,2S,5S)-3-(diphenylcarbamoyl)-8-(methyl (2-methylbenzyl)carbamoyl)-3,8-diazabicyclo [3.2.1]octane-2-carboxylic acid], 0.0656 µM. For the molecule `Cc1ccc(CN(C(=O)N2[C@H]3CC[C@@H]2[C@@H](C(=O)O)N(C(=O)N(c2ccccc2)c2ccccc2)C3)C2CC2)s1` [Compound C204], the IC50 was found to be 0.00493 µM. To `Cc1ccc([C@H]2CCCN2C(=O)N2[C@H]3CC[C@@H]2[C@@H](C(=O)O)N(C(=O)N(c2ccccc2)c2ccccc2)C3)cc1` [Compound C143, (1R,2S,5S)-3-(diphenylcarbamoyl)-8-((R)-2-(p-tolyl)pyrrolidine-1-carbonyl)-3,8-diazabicyclo [3.2.1]octane-2-carboxylic acid] belongs 0.00997 µM; to `CCN(Cc1cscn1)C(=O)N1[C@H]2CC[C@@H]1[C@@H](C(=O)O)N(C(=O)N(c1ccccc1)c1ccccc1)C2` [Compound C209, (1R,2S,5S)-3-(diphenylcarbamoyl)-8-(ethyl(thiazole-4-ylmethyl)carbamoyl)-3,8-diazabicyclo [3.2.1]octane-2-carboxylic acid], 0.0814 µM.

Consider `O=C(O)[C@@H]1[C@H]2CC[C@@H](CN1C(=O)N(c1ccccc1)c1ccccc1)N2C(=O)N(Cc1ccsc1)CC1CC1` [Compound C205, (1R,2S,5S)-8-((cyclopropylmethyl) (thiophene-3-ylmethyl)carbamoyl)-3-(diphenylcarbamoyl)-3,8-diazabicyclo [3.2.1]octane-2-carboxylic acid], for which the 50% inhibitory concentration (IC50) stood at 0.0428 µM. Regarding `C#Cc1ccc(CN(C)C(=O)N2[C@H]3CC[C@@H]2[C@@H](C(=O)O)N(C(=O)N(c2ccccc2)c2ccccc2)C3)cc1` [Compound C171, (1R,2S,5S)-3-(diphenylcarbamoyl)-8-((4-ethynylbenzyl) (methyl)carbamoyl)-3,8-diazabicyclo [3.2.1]octane-2-carboxylic acid], the half-inhibitory concentration (IC50) amounted to 0.0192 µM. To `O=C(O)[C@@H]1[C@H]2CC[C@@H](CN1C(=O)N1c3ccccc3C=Cc3ccccc31)N2C(=O)N(c1ccccc1)c1ccccc1` [Compound C7, (1R,2S,5S)-3-(5H-dibenzo[b,f]azepine-5-carbonyl)-8-(diphenylcarbamoyl)-3,8-diazabicyclo[3. 2.1]octane-2-carboxylic acid] belongs 0.0827 µM. As to `Cc1cc(CN(C)C(=O)N2[C@H]3CC[C@@H]2[C@@H](C(=O)O)N(C(=O)N(c2ccccc2)c2ccccc2)C3)cs1` [Compound C185], the IC50 stood at 0.0387 µM. Under `O=C(O)[C@@H]1[C@H]2CC[C@@H](CN1C(=O)N(c1ccccc1)c1ccccc1)N2C(=O)N(Cc1cccs1)C1CC1` [Compound C200, (1R,2S,5S)-8-(cyclopropyl (thiophene-2-ylmethyl)carbamoyl)-3-(diphenylcarbamoyl)-3,8-diazabicyclo [3.2.1]octane-2-carboxylic acid] stands 0.00325 µM; under `O=C(O)[C@@H]1[C@H]2CC[C@@H](CN1C(=O)N(c1ccccc1)c1ccccc1)N2C(=O)Cc1c[nH]c2ccccc12` [Compound C259, (1R,2S,5S)-8-(2-(1H-indole-3-yl)acetyl)-3-(diphenylcarbamoyl)-3,8-diazabicyclo [3.2.1]octane-2-carboxylic acid], 0.245 µM. To `CN(Cc1ccc2cc[nH]c2c1)C(=O)N1[C@H]2CC[C@@H]1[C@@H](C(=O)O)N(C(=O)N(c1ccccc1)c1ccccc1)C2` [Compound C249, (1R,2S,5S)-8-(((1H-indole-6-yl)methyl)(methyl)carbamoyl)-3-(diphenylcarbamoyl)-3,8-diazabicyclo [3.2.1]octane-2-carboxylic acid] belongs 0.0109 µM; to `O=C(O)[C@@H]1[C@H]2CC[C@@H](CN1C(=O)N(c1ccccc1)c1ccccc1)N2C(=O)N(Cc1ccccc1)C1CC1` [Compound C153, (1R,2S,5S)-8-(benzyl (cyclopropyl)carbamoyl)-3-(diphenylcarbamoyl)-3,8-diazabicyclo [3.2.1]octane-2-carboxylic acid], 0.00278 µM; to `CCN(Cc1ccc(C)s1)C(=O)N1[C@H]2CC[C@@H]1[C@@H](C(=O)O)N(C(=O)N(c1ccccc1)c1ccccc1)C2` [Compound C202, (1R,2S,5S)-3-(diphenylcarbamoyl)-8-(ethyl((5-methylthiophen-2-yl)methyl)carbamoyl)-3,8-diazabicyclo [3.2.1]octane-2-carboxylic acid], 0.00387 µM. To `C/C(=C\c1ccccc1)C(=O)N1[C@H]2CC[C@@H]1[C@@H](C(=O)O)N(C(=O)C(c1ccccc1)c1ccccc1)C2` [Compound C231, (1R,2S,5S)-3-(2,2-diphenylacetyl)-8-((E)-2-methyl-3-phenylacryloyl)-3,8-diazabicyclo [3.2.1]octane-2-carboxylic acid] belongs 0.103 µM.
